In patent US20040043403A1, “Process for determining the biological activity of epidermal growth factor receptor tyrosine kinase inhibitors” (priority 2000, published 2004):

Tests used:
[1] = tested on: A431, NCI-H596, NCI-H520, MDA-MB-468 and WBCs; experiment: UniGEM V array 2 h expression profiles of 4 tumor cell lines and WBCs; format: cell-based, human; conditions: 3 μM, cut off set at 3, vs DMSO, data not shown
Method: 20 million tissue culture cells (about 80% confluent) or 200 million WBCs are incubated for 2 or 24 h in culture medium containing 3 μM of an EGFR tyrosine kinase inhibitor or 0.03% DMSO. Total RNA from cell pellet is isolated using the RNeasy kit (Qiagen). mRNA is isolated using the oligotex mRNA purification kit (Qiagen). The quality of the obtained mRNA is tested by real time RT-PCR using beta-Actin primers (PE Applied Biosystems) with an amplicon size of 300 base pairs (bp). The total RNA is used as a reference to calculate the amount of mRNA-enrichment in the oligotex purified samples.
Probes for the UniGEM hybridization are synthesized by Incyte Genomics (Palo Alto, Calif., USA). For each probe 200 ng mRNA (50 ng/μl) is shipped in dry ice. The results are analyzed using the Expressionist Software Package provided by GeneData.
Expression profiles (UniGEM V arrays) of 4 tumor cell lines with different EGFR expression status (A431, NCI-H596, NCI-H520 and MDA-MB-468) and of WBCs upon exposure of cells to 3 μM of COMPOUND A for 2 or 24 h are analyzed. As control, cells treated with DMSO for the same time period are used. […] The cDNA array hybridization is repeated with the UniGEM 1 array using the same mRNA (Table 3).

MDA-MB468 = experiment: Western blot of clusterin induction in MDA-MB468 cells; format: cell-based, human; conditions: MDA-MB468 cells (high levels of EGFR), 300 nM, 24 h, vs 0.03% DMSO
Method: An EGFR tyrosine kinase inhibitor is dissolved in DMSO to obtain a 10 mM stock solution. The stock solution is further diluted in culture medium to final concentrations of 10 nM to 3 μM. 3.5 million cells/100 mm dish/12 ml culture medium are incubated for 24 h in 5% CO2 at 37° C. The medium is replaced with medium containing the EGFR tyrosine kinase inhibitor or DMSO. Cells are incubated for 4 to 32 h. The frozen pellets are lysed in 500 μl of lysis buffer (50 mM Tris-HCl pH 7.5, 1% Sodium Dodecyl Sulfate (SDS)). To shear genomic DNA, the cell lysates are processed in a FastPrep instrument for 20 sec at a speed rating of 4, using the green […] tubes (Bio101#6040-6010). Protein concentrations are determined according to the PIERCE-method (BCA Protein Assay, Reagent A and B). Protein concentration of lysates is adjusted to 1 μg/μl with lysis buffer. 4 parts of cell lysates are mixed with 1 part of 5 fold concentrated Laemmli buffer, the lysates are stored at -20° C. 40 μl of cell lysate is heated for 3 min to 95° C. and directly loaded on to 10% or 15% SDS-PAGE gels. The gels are run at 130 V for 90 min under standard conditions. The separated proteins are semi-dry blotted on to a PVDF membrane (Immobilon-P, Millipore #IPVH 202 00) for 70 min with 45 mA per blot. […]

## C[C@@H](Nc1ncnc2[nH]c(-c3ccc(O)cc3)cc12)c1ccccc1 [COMPOUND A, (R)-6-(4-hydroxy-phenyl)-4-[(1-phenyl-ethyl)-amino]-7H-pyrrolo[2,3-d]pyrimidine]
[1]
  2 h expression profiles, induced and repressed genes: almost no induced genes and only few repressed genes
  2 h expression profiles: early growth response protein 1: repression in two cell lines and WBCs
MDA-MB468
  Clusterin induction, Western blot (FIG. 4): strong clusterin expression signals
